Common to all, as to assay type: physicochemical
A short description of data set [1]: Saturated solubility of the transition metal compound in a solvent at 23° C. Conditions: amount dissolved in 10 mL of saturated solution (Note-1).
The nature of data set [2]: Polymer dipped in heptane (transfer of the transition metal compound to heptane). Conditions: poly(butyl acrylate) made at 60° C. in toluene, containing the transition metal compound. The source says:
Its molecular weight distribution (Mw/Mn) of 3.2 was a single peak distribution. When dipping said polymer in heptane, the transition metal compound contained in said polymer was transferred to heptane, and said polymer was decolorized from red to very pale yellow.
Its molecular weight distribution (Mw/Mn) of 3.9 was a single peak distribution. When dipping said polymer in heptane, the transition metal compound contained in said polymer was hardly transferred to heptane, and said polymer remained red and was not decolorized.

Data set [3] in a line: Color change of the reaction mixture before and after polymerization (stability during polymerization). The following applies: methyl acrylate/ethylene copolymerization in toluene, 150° C., 4 MPa. The protocol: A 400 mL stainless-steel autoclave was dried sufficiently, and a gas in the autoclave was displaced with a nitrogen gas. There was put in the autoclave, at ordinary temperature and atmospheric pressure, 1.61 g of [dodecyl(tetramethyl)cyclopentadienyl]iron carbonyl dimer (transition metal compound) obtained in Reference Example 2, and then, 18 mL of methyl acrylate manufactured by Tokyo Chemical Industry Co., Ltd. and 18 mL of purified toluene as a polymerization solvent were put therein using a syringe. After heating the mixture up to 150° C., ethylene (olefin) was pressed into the autoclave up to its pressure of 4.0 MPa. Finally, 2.0 mL of a toluene solution of 2-iodobutane (manufactured by Tokyo Chemical Industry Co., Ltd.) having a concentration of 1.0 mol/L was put therein, thereby copolymerizing methyl acrylate and ethylene at 150° C. for 10 minutes. The copolymerization reaction mixture was subjected to distillation under reduced pressure to distil away the remaining monomer (methyl acrylate) and the solvent (toluene). The resultant solid was dried for three hours in a vacuum dryer (80° C.), thereby obtaining 8.7 g of a random copolymer of methyl acrylate and ethylene. Both the original mixture before copolymerization and the copolymerization reaction mixture were red. […]

With `Cc1c(C)c(C)[c-](C)c1C.Cc1c(C)c(C)[c-](C)c1C.[C-]#[O+].[C-]#[O+].[C-]#[O+].[C-]#[O+].[Fe+][Fe+]` [[(pentamethyl)cyclopentadienyl]iron carbonyl dimer], the Saturated solubility is 0.8 mmol in data set [1] (hexane) and 19.3 mmol in data set [1] (toluene).

(cyclopentadienyl)iron carbonyl dimer: the Saturated solubility in data set [1] (hexane) is 2.4 mmol; in data set [1] (toluene), 167.3 mmol.

As to “[dodecyl(tetramethyl)cyclopentadienyl]iron carbonyl dimer”, the “Polymer dipped in heptane” value in data set [2] is “decolorized”. This compound had a Saturated solubility in data set [1] (hexane) of 131.4 mmol. Moreover, in data set [3], the “Color change of the reaction mixture before and after polymerization” value is reported as “non-changed”.

In the case of “[octyl(tetramethyl)cyclopentadienyl]iron carbonyl dimer”, in data set [1] (hexane), the Saturated solubility was determined as 96.8 mmol.

These data come from US20070270521A1, “Transition metal compound, polymerization-initiator system comprising the same, and process for producing polymer” (Sumitomo Chemical Company, Limited, priority 2006, published 2007).
